Test results as given in patent US5541175A, “Cephalosporin antibiotics” (Lucky, Ltd., priority 1993, dated 1996).
Values after ≈ are worked out from the molar mass of the structure shown. Where two headings read alike, the source gives them in different places.

Assays:
[1] = Pharmacokinetic properties in rats (blood concentration by agar well biological assay); set-up: species or system SD rats (male); conditions: rat, in vivo, iv, 20 mg/kg
Experimental: The pharmacokinetic properties of the compound of the present invention were determined using SD rats (.male.) weighing 230±10 g. Specifically,the test samples were injected into femoral vein in an amount of 20 mg/kg to 4 to 5 test animals. Blood was taken from femoral vein 1, 2.5, 5, 10, 20, 40, 60, 120 and 180 minutes after administration and then subjected to a biological assay using agar well method to measure the blood concentration.

[2] = system: Klebsiella aerogenes K1 + 1082E; assay: Minimum inhibitory concentration (agar 2-fold dilution); format: cell-based; conditions: 20 h, read-out: Minimum Inhibitory Concentration
Experimental: (§1) The minimum inhibitory concentration was determined by diluting the test compounds according to 2-fold dilution, suspending them in Muller-Hinton agar medium, inoculating 2 μl of the suspension containing the test strains having 10^7 CFU (Colony Forming Unit) per 1 ml into the medium and then culturing the test strains at 37° C. for 20 hours.

[3] = system: Serratia marcescens 1826E; assay: as above; format: cell-based; conditions: S. marcescens 1826E, Muller-Hinton agar, 37° C., 20 hours, read-out: Minimum Inhibitory Concentration
Experimental: as §1

Enterobacter cloacae P99 = assay: as above; format: cell-based; conditions: P99, 20 h, read-out: Minimum Inhibitory Concentration
Experimental: as §1

[4] = system: Escherichia coli TEM7 3457E; assay: as above; format: cell-based; conditions: TEM73457E, 20 h, read-out: Minimum Inhibitory Concentration
Experimental: as §1

[5] = system: Klebsiella aerogenes SHV-1 1976E; assay: as above; format: cell-based; conditions: SHV11976E, K. aerogenes SHV-1 1976E, Muller-Hinton agar, 37° C., 20 hours
Experimental: as §1

[6] = system: Escherichia coli TEM9 2639E; assay: as above; format: cell-based; conditions: TEM92639E, 20 h, read-out: Minimum Inhibitory Concentration
Experimental: as §1

[7] = system: Acinetobacter calcoaceticus 15473A; assay: as above; format: cell-based; conditions: A. calcoaceticus 15473A, Muller-Hinton agar, 37° C., 20 hours, read-out: Minimum Inhibitory Concentration
Experimental: as §1

[8] = system: Pseudomonas aeruginosa 1912E; assay: as above; format: cell-based; conditions: P. aeruginosa 1912E, Muller-Hinton agar, 37° C., 20 hours, read-out: Minimum Inhibitory Concentration
Experimental: as §1

[9] = system: Escherichia coli TEM3 3455E; assay: as above; format: cell-based; conditions: TEM33455E, 20 h, read-out: Minimum Inhibitory Concentration
Experimental: as §1

[10] = system: Staphylococcus aureus giorgio; assay: as above; format: cell-based; conditions: S. aureus giorgio, Muller-Hinton agar, 37° C., 20 hours, read-out: Minimum Inhibitory Concentration
Experimental: as §1

[11] = system: Escherichia coli TEM1 1193E; assay: as above; format: cell-based; conditions: TEM11193E, 20 h, read-out: Minimum Inhibitory Concentration
Experimental: as §1

Escherichia coli 851E = assay: as above; format: cell-based; conditions: E. coli 851E, Muller-Hinton agar, 37° C., 20 hours
Experimental: as §1

[12] = system: Salmonella typhimurium 14028A; assay: as above; format: cell-based; conditions: Salmonella enterica; S. typhimurium 14028A; Muller-Hinton agar, 37° C., 20 hours; read-out: Minimum Inhibitory Concentration
Experimental: as §1

Staphylococcus aureus 77 = assay: as above; format: cell-based; conditions: Staphylococcus aureus; S. aureus 77; Muller-Hinton agar, 37° C., 20 hours; read-out: Minimum Inhibitory Concentration
Experimental: as §1

[13] = system: Escherichia coli TEM5 3739E; assay: as above; format: cell-based; conditions: TEM53739E, 20 h, read-out: Minimum Inhibitory Concentration
Experimental: as §1

Proteus vulgaris 6059A = assay: as above; format: cell-based; conditions: P. vulgaris 6059A, Muller-Hinton agar, 37° C., 20 hours, read-out: Minimum Inhibitory Concentration
Experimental: as §1

[14] = system: Enterobacter cloacae IND + VE 1194E; assay: as above; format: cell-based; conditions: E. cloacae IND + VE 1194E, Muller-Hinton agar, 37° C., 20 hours, read-out: Minimum Inhibitory Concentration
Experimental: as §1

[15] = system: Staphylococcus aureus epidermidis 887E; assay: as above; format: cell-based; conditions: S. aureus epidermidis 887E, Muller-Hinton agar, 37° C., 20 hours, read-out: Minimum Inhibitory Concentration
Experimental: as §1

[16] = system: Streptococcus faecalis 29212A; assay: as above; format: cell-based; conditions: Enterococcus faecalis; S. faecalis 29212A; Muller-Hinton agar, 37° C., 20 hours; read-out: Minimum Inhibitory Concentration
Experimental: as §1

[17] = system: Citrobacter diversus 2046E; assay: as above; format: cell-based; conditions: Citrobacter koseri; C. diversus 2046E; Muller-Hinton agar, 37° C., 20 hours; read-out: Minimum Inhibitory Concentration
Experimental: as §1

[18] = system: Staphylococcus aureus 241; assay: as above; format: cell-based; conditions: Staphylococcus aureus; S. aureus 241; Muller-Hinton agar, 37° C., 20 hours; read-out: Minimum Inhibitory Concentration
Experimental: as §1

Escherichia coli 10536 = assay: as above; format: cell-based; conditions: Escherichia coli; E. coli 10536; Muller-Hinton agar, 37° C., 20 hours; read-out: Minimum Inhibitory Concentration
Experimental: as §1

[19] = system: Pseudomonas aeruginosa 6065; assay: as above; format: cell-based; conditions: Pseudomonas aeruginosa; P. aeruginosa 6065; Muller-Hinton agar, 37° C., 20 hours; read-out: Minimum Inhibitory Concentration
Experimental: as §1

[20] = system: Pseudomonas aeruginosa 10145; assay: as above; format: cell-based; conditions: Pseudomonas aeruginosa; P. aeruginosa 10145; Muller-Hinton agar, 37° C., 20 hours; read-out: Minimum Inhibitory Concentration
Experimental: as §1

Escherichia coli 3190Y = assay: as above; format: cell-based; conditions: E. coli 3190Y, Muller-Hinton agar, 37° C., 20 hours, read-out: Minimum Inhibitory Concentration
Experimental: as §1

[21] = system: Staphylococcus aureus 6538P; assay: as above; format: cell-based; conditions: read-out: Minimum Inhibitory Concentration
Experimental: as §1

[22] = S. aureus 6538P, Muller-Hinton agar, 37° C., 20 hours

Cc1c(N)nc[n+](C/C=C/C2=C(C(=O)[O-])N3C(=O)[C@@H](NC(=O)/C(=N\O[C@H](C(=O)O)c4ccc(O)c(O)c4)c4csc(N)n4)[C@H]3SC2)c1N [Compound I-4a, 7-[(Z)-2-(2-aminothiazol-4-yl)-2-(α-carboxy-3,4-dihydroxybenzyloxyimino)acetamido]-3-[(E)-3-(4,6-diamino-5-methylpyrimidinium-1-yl)-1-propen-1-yl]-3-cephem-4-carboxylate]
AUC [1]: 53100 ng·h/mL | half-life [1]: 53 min | MIC [2]: 0.063 µg/mL (≈ 0.0903 µM) | MIC [3]: 0.25 µg/mL (≈ 0.358 µM) | MIC (Enterobacter cloacae P99): 8 µg/mL (≈ 11.5 µM) | MIC [4]: 0.25 µg/mL (≈ 0.358 µM) | MIC [5]: 0.13 µg/mL (≈ 0.186 µM) | MIC [6]: 2 µg/mL (≈ 2.87 µM) | MIC [7]: 0.5 µg/mL (≈ 0.717 µM) | MIC [8]: 4 µg/mL (≈ 5.73 µM) | MIC [9]: 0.25 µg/mL (≈ 0.358 µM) | MIC [10]: 0.25 µg/mL (≈ 0.358 µM) | MIC [11]: 0.063 µg/mL (≈ 0.0903 µM) | MIC (Escherichia coli 851E): 0.063 µg/mL (≈ 0.0903 µM) | MIC [12]: 0.016 µg/mL (≈ 0.0229 µM) | MIC (Staphylococcus aureus 77): 2 µg/mL (≈ 2.87 µM) | MIC [13]: 2 µg/mL (≈ 2.87 µM) | MIC (Proteus vulgaris 6059A): 0.063 µg/mL (≈ 0.0903 µM) | MIC [14]: 2 µg/mL | MIC [15]: 16 µg/mL (≈ 22.9 µM) | MIC [16]: 4 µg/mL (≈ 5.73 µM) | MIC [17]: 0.13 µg/mL (≈ 0.186 µM) | MIC [18]: 64 µg/mL (≈ 91.7 µM) | MIC (Escherichia coli 10536): 0.008 µg/mL (≈ 0.0115 µM) | MIC [19]: 1 µg/mL (≈ 1.43 µM) | MIC [20]: 0.5 µg/mL (≈ 0.717 µM) | MIC (Escherichia coli 3190Y): 0.063 µg/mL (≈ 0.0903 µM) | MIC [21, 22]: 0.5 µg/mL (≈ 0.717 µM)

Nc1nc(/C(=N/O[C@H](C(=O)O)c2ccc(O)c(O)c2)C(=O)N[C@@H]2C(=O)N3C(C(=O)[O-])=C(/C=C/C[n+]4cnc(N)c5c4CCC5)CS[C@H]23)cs1 [Compound I-3a, 7-[(Z)-2-(2-aminothiazol-4-yl)-2-(α-carboxy-3,4-dihydroxybenzyloxyimino)acetamido]-3-[(E)-3-(4-amino-5,6-cyclopentanopyrimidinium-1-yl)-1-propen-1-yl]-3-cephem-4-carboxylate]
AUC [1]: 36600 ng·h/mL | half-life [1]: 33 min | MIC [2]: 0.063 µg/mL (≈ 0.0889 µM) | MIC [3]: 0.5 µg/mL (≈ 0.705 µM) | MIC (Enterobacter cloacae P99): 16 µg/mL (≈ 22.6 µM) | MIC [4]: 0.13 µg/mL (≈ 0.183 µM) | MIC [5]: 0.13 µg/mL (≈ 0.183 µM) | MIC [6]: 2 µg/mL (≈ 2.82 µM) | MIC [7]: 0.5 µg/mL (≈ 0.705 µM) | MIC [8]: 0.5 µg/mL (≈ 0.705 µM) | MIC [9]: 0.063 µg/mL (≈ 0.0889 µM) | MIC [10]: 1 µg/mL (≈ 1.41 µM) | MIC [11]: 0.063 µg/mL (≈ 0.0889 µM) | MIC (Escherichia coli 851E): 0.031 µg/mL (≈ 0.0437 µM) | MIC [12]: 0.031 µg/mL (≈ 0.0437 µM) | MIC (Staphylococcus aureus 77): 4 µg/mL (≈ 5.64 µM) | MIC [13]: 0.5 µg/mL (≈ 0.705 µM) | MIC (Proteus vulgaris 6059A): 0.13 µg/mL (≈ 0.183 µM) | MIC [14]: 2 µg/mL | MIC [15]: 64 µg/mL (≈ 90.3 µM) | MIC [16]: 4 µg/mL (≈ 5.64 µM) | MIC [17]: 0.063 µg/mL (≈ 0.0889 µM) | MIC [18]: > 128 µg/mL | MIC (Escherichia coli 10536): 0.008 µg/mL (≈ 0.0113 µM) | MIC [19]: 1 µg/mL (≈ 1.41 µM) | MIC [20]: 0.5 µg/mL (≈ 0.705 µM) | MIC (Escherichia coli 3190Y): 0.031 µg/mL (≈ 0.0437 µM) | MIC ([21]; 6538P, 20 h): 1 µg/mL (≈ 1.41 µM)

Nc1nc(/C(=N/O[C@H](C(=O)O)c2ccc(O)c(O)c2)C(=O)N[C@@H]2C(=O)N3C(C(=O)[O-])=C(/C=C/C[n+]4cnc(N)c(N)c4N)CS[C@H]23)cs1 [Compound I-5a, 7-[(Z)-2-(2-aminothiazol-4-yl)-2-(α-carboxy-3,4-dihydroxybenzyloxyimino)acetamido]-3-[(E)-3-(4,5,6-triaminopyrimidinium-1-yl)-1-propen-1-yl]-3-cephem-4-carboxylate]
AUC [1]: 49600 ng·h/mL | half-life [1]: 41 min | MIC [2]: 0.063 µg/mL (≈ 0.0902 µM) | MIC [3]: 0.5 µg/mL (≈ 0.716 µM) | MIC (Enterobacter cloacae P99): 8 µg/mL (≈ 11.4 µM) | MIC [4]: 0.031 µg/mL (≈ 0.0444 µM) | MIC [5]: 0.5 µg/mL (≈ 0.716 µM) | MIC [6]: 1 µg/mL (≈ 1.43 µM) | MIC [7]: 0.5 µg/mL (≈ 0.716 µM) | MIC [8]: 0.5 µg/mL (≈ 0.716 µM) | MIC [9]: 0.063 µg/mL (≈ 0.0902 µM) | MIC [10]: 0.25 µg/mL (≈ 0.358 µM) | MIC [11]: 0.063 µg/mL (≈ 0.0902 µM) | MIC (Escherichia coli 851E): 0.063 µg/mL (≈ 0.0902 µM) | MIC [12]: 0.03 µg/mL (≈ 0.0429 µM) | MIC (Staphylococcus aureus 77): 2 µg/mL (≈ 2.86 µM) | MIC [13]: 0.5 µg/mL (≈ 0.716 µM) | MIC (Proteus vulgaris 6059A): 0.063 µg/mL (≈ 0.0902 µM) | MIC [14]: 1 µg/mL | MIC [15]: 64 µg/mL (≈ 91.6 µM) | MIC [16]: 4 µg/mL (≈ 5.72 µM) | MIC [17]: 0.13 µg/mL (≈ 0.186 µM) | MIC [18]: 128 µg/mL (≈ 183 µM) | MIC (Escherichia coli 10536): 0.016 µg/mL (≈ 0.0229 µM) | MIC [19]: 4 µg/mL (≈ 5.72 µM) | MIC [20]: 0.25 µg/mL (≈ 0.358 µM) | MIC (Escherichia coli 3190Y): 0.063 µg/mL (≈ 0.0902 µM) | MIC [21, 22]: 0.5 µg/mL (≈ 0.716 µM)
